# Reference: paper PMC5780498, “Discovery of novel bacterial topoisomerase I inhibitors by use of in silico docking and in vitro assays” (Scientific Reports, 2018)
# Where two headings read alike, the source gives them in different places.
# Test system: M. smegmatis clone overexpressing recombinant MtbTopI (M+ strain)
# Assay: microbe, parasite or virus in culture
# Format: cell-based, Mycobacterium smegmatis
# Details: Mycolicibacterium smegmatis
# [1] = 48 h, read-out: M+ Growth Inhibition (MIC)
# [2] = read-out: M+ Growth Inhibition with TZ (MIC)
SMILES,MIC [1] [µM],MIC [2] [µM]
Cc1c(C(=O)N2CCC(c3nnc(-c4nccc5ccccc45)o3)CC2)oc2ccccc12 [Compound 2],> 250,62.5
COc1ccc2c(c1)NC1(CCN(C(=O)Cc3c[nH]c4ccccc34)CC1)NS2(=O)=O [Compound 3],> 250,62.5
Cc1ccc(CN2C[C@]34C=C[C@H](O3)C(C(=O)N3CCn5cccc5C3)C4C2=O)cc1C (stereo partly shown) [Compound 7],> 500,> 500
Cc1cc2oc(C(=O)N3CCC(c4nc5ccccc5[nH]4)CC3)c(C)c2cc1C [Compound 8],> 500,31.3
Cc1ccc2[nH]c(C3CCN(C(=O)c4oc5ccc(C)cc5c4C)CC3)nc2c1 [Compound 9],> 500,31.3
Cc1ccc2oc(C(=O)N3CCC(O)(c4cccc(C(F)(F)F)c4)CC3)c(C)c2c1 [Compound 10],> 500,46.9
Cc1c(C(=O)N2CCCCC2CCc2ccc(O)cc2)oc2c(F)cccc12 (stereo not shown) [Compound 11],> 500,125
Cc1ccc2c(C)c(C(=O)N3CCC4(CC(=O)c5ccccc5O4)C3)oc2c1 (stereo not shown) [Compound 12],> 500,> 500
